Experiments:
Conditions in all cases: 48 h
NOMO1 [1] = experiment: cell viability relative to DMSO control; higher = less cytotoxic
Outline: (§1)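 NOMO1 or SEM (500 cells/well) or P12-Ichikawa (1000 cells/well) leukemia cells were adapted for at least four passages in each medium. They were seeded in 1536-well plates (5 μl) and pin-dosed with library compounds in DMSO over an 11-point threefold series, 47 μM to 0.79 nM. CellTiter-Glo One luminescence was read after 48 h at 37°C. Viability is the per-plate percentage relative to DMSO wells, with cell-free wells as background.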

P12-Ichikawa [2] = experiment: as above
Outline: as §1

SEM cells [3] = experiment: as above
Outline: as §1

NOMO1 [4] = experiment: AUC of viability dose-response curve (% viability x log10 dose units); higher = less sensitive
Outline: (§2)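 Seeding of medium-adapted leukemia cells was at 500 or 1000 cells/well in 1536-well plates, followed by 48 h at 37°C with library compounds in DMSO at 11 threefold doses from 47 μM to 0.79 nM. CellTiter-Glo One luminescence was normalised per plate to DMSO and cell-free wells and fitted as a four-parameter log-logistic function of log10 dose. Area under the curve was integrated by trapezoidal rule, with curves exceeding full viability scaled and curves failing quality control removed.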

P12-Ichikawa [5] = experiment: as above
Outline: as §2

SEM cells [6] = experiment: as above
Outline: as §2

Cl.Cl.Cl.O[C@@H](COc1cccc2ncccc12)CN1CCN([C@@H]2c3ccccc3[C@@H]3[C@H](c4ccccc42)C3(F)F)CC1
cell viability [%]
Conditions	NOMO1 [1]	P12-Ichikawa [2]	SEM cells [3]
HPLM + 10% dialyzed FBS, 0.000781 µM	79.7	94.8	88.2
HPLM + 10% dialyzed FBS, 0.00234 µM	84.8	94.5	103
HPLM + 10% dialyzed FBS, 0.00702 µM	75.8	88.4	82.3
HPLM + 10% dialyzed FBS, 0.0211 µM	89.4	89.7	83.8
HPLM + 10% dialyzed FBS, 0.0632 µM	94.7	90.5	105
HPLM + 10% dialyzed FBS, 0.19 µM	102	92.9	90
HPLM + 10% dialyzed FBS, 0.569 µM	93.8	84	84.5
HPLM + 10% dialyzed FBS, 1.71 µM	76.5	83.8	89.6
HPLM + 10% dialyzed FBS, 5.12 µM	94.6	81.8	91.9
HPLM + 10% dialyzed FBS, 15.4 µM	70.8	84.5	71.2
HPLM + 10% dialyzed FBS, 46.1 µM	68.6	79.3	73.4
RPMI 5 mM glucose + 10% FBS, 0.000781 µM	79.7	89.1	89.3
RPMI 5 mM glucose + 10% FBS, 0.00234 µM	78.4	79.1	100
RPMI 5 mM glucose + 10% FBS, 0.00702 µM	75.8	77.9	75.7
RPMI 5 mM glucose + 10% FBS, 0.0211 µM	91.7	84	95.7
RPMI 5 mM glucose + 10% FBS, 0.0632 µM	97	88.5	98.6
RPMI 5 mM glucose + 10% FBS, 0.19 µM	84.5	87	82.6
RPMI 5 mM glucose + 10% FBS, 0.569 µM	89.8	71	86.2
RPMI 5 mM glucose + 10% FBS, 1.71 µM	87.9	81.6	94.5
RPMI 5 mM glucose + 10% FBS, 5.12 µM	81	78.4	100
RPMI 5 mM glucose + 10% FBS, 15.4 µM	76.2	79.8	97.3
RPMI 5 mM glucose + 10% FBS, 46.1 µM	74.2	84.6	3.4
RPMI 5 mM glucose + 10% dialyzed FBS, 0.000781 µM	98.6	91.8	94.1
RPMI 5 mM glucose + 10% dialyzed FBS, 0.00234 µM	83.8	84.3	92.1
RPMI 5 mM glucose + 10% dialyzed FBS, 0.00702 µM	87.2	86.3	85.7
RPMI 5 mM glucose + 10% dialyzed FBS, 0.0211 µM	79.5	86.7	93.9
RPMI 5 mM glucose + 10% dialyzed FBS, 0.0632 µM	81	81.6	101
RPMI 5 mM glucose + 10% dialyzed FBS, 0.19 µM	92.4	84.6	102
RPMI 5 mM glucose + 10% dialyzed FBS, 0.569 µM	73.5	84.4	86.9
RPMI 5 mM glucose + 10% dialyzed FBS, 1.71 µM	84.2	77.8	106
RPMI 5 mM glucose + 10% dialyzed FBS, 5.12 µM	86.2	78.6	85.3
RPMI 5 mM glucose + 10% dialyzed FBS, 15.4 µM	78.2	78.4	105
RPMI 5 mM glucose + 10% dialyzed FBS, 46.1 µM	87	76.3	83.5

AUC of viability dose-response curve
Conditions	NOMO1 [4]	P12-Ichikawa [5]	SEM cells [6]
HPLM + 10% dialyzed FBS	404	418	421
RPMI 5 mM glucose + 10% FBS	397	391	418
RPMI 5 mM glucose + 10% dialyzed FBS	401	395	449

C[C@](O)(COc1ccc(C#N)cc1)C(=O)Nc1ccc(C#N)c(C(F)(F)F)c1
cell viability [%]
Conditions	NOMO1 [1]	P12-Ichikawa [2]	SEM cells [3]
HPLM + 10% dialyzed FBS, 0.000781 µM	83.2	85.2	70.4
HPLM + 10% dialyzed FBS, 0.00234 µM	81.5	81.8	77
HPLM + 10% dialyzed FBS, 0.00702 µM	81.2	93	90.7
HPLM + 10% dialyzed FBS, 0.0211 µM	95.6	94.8	84.9
HPLM + 10% dialyzed FBS, 0.0632 µM	90.1	99.2	91.3
HPLM + 10% dialyzed FBS, 0.19 µM	99.1	93.2	95.5
HPLM + 10% dialyzed FBS, 0.569 µM	90.4	102	87
HPLM + 10% dialyzed FBS, 1.71 µM	96	93.9	84.4
HPLM + 10% dialyzed FBS, 5.12 µM	88.6	89.7	90.5
HPLM + 10% dialyzed FBS, 15.4 µM	97	94.6	21.9
HPLM + 10% dialyzed FBS, 46.1 µM	71.2	95.3	89.6
RPMI 5 mM glucose + 10% FBS, 0.000781 µM	72.8	77.6	84.9
RPMI 5 mM glucose + 10% FBS, 0.00234 µM	93.8	84.4	70.4
RPMI 5 mM glucose + 10% FBS, 0.00702 µM	94.4	84.3	99.6
RPMI 5 mM glucose + 10% FBS, 0.0211 µM	85.4	94.1	104
RPMI 5 mM glucose + 10% FBS, 0.0632 µM	96.2	83.8	90.5
RPMI 5 mM glucose + 10% FBS, 0.19 µM	95.3	92.2	93
RPMI 5 mM glucose + 10% FBS, 0.569 µM	103	89	102
RPMI 5 mM glucose + 10% FBS, 1.71 µM	96.2	86.7	87.3
RPMI 5 mM glucose + 10% FBS, 5.12 µM	88.8	83.9	103
RPMI 5 mM glucose + 10% FBS, 15.4 µM	92.8	91	14.7
RPMI 5 mM glucose + 10% FBS, 46.1 µM	75.9	80.5	39.5
RPMI 5 mM glucose + 10% dialyzed FBS, 0.000781 µM	75.5	80.9	83
RPMI 5 mM glucose + 10% dialyzed FBS, 0.00234 µM	88.7	82.6	81.6
RPMI 5 mM glucose + 10% dialyzed FBS, 0.00702 µM	86.8	78.6	91.9
RPMI 5 mM glucose + 10% dialyzed FBS, 0.0211 µM	98.3	81.6	91.5
RPMI 5 mM glucose + 10% dialyzed FBS, 0.0632 µM	92.5	83.6	95.6
RPMI 5 mM glucose + 10% dialyzed FBS, 0.19 µM	97.2	76.1	107
RPMI 5 mM glucose + 10% dialyzed FBS, 0.569 µM	95.2	82.4	97.6
RPMI 5 mM glucose + 10% dialyzed FBS, 1.71 µM	102	80.7	93.9
RPMI 5 mM glucose + 10% dialyzed FBS, 5.12 µM	85.2	77.5	91
RPMI 5 mM glucose + 10% dialyzed FBS, 15.4 µM	92.4	82.1	20.1
RPMI 5 mM glucose + 10% dialyzed FBS, 46.1 µM	78.8	68.8	49.7

AUC of viability dose-response curve
Conditions	NOMO1 [4]	P12-Ichikawa [5]	SEM cells [6]
HPLM + 10% dialyzed FBS	422	445	388
RPMI 5 mM glucose + 10% FBS	435	413	396
RPMI 5 mM glucose + 10% dialyzed FBS	433	382	400

— the supplement of paper PMC11451515
